From article PMC8474119, “Discovery and SAR Evolution of Pyrazole Azabicyclo[3.2.1]octane Sulfonamides as a Novel Class of Non-Covalent N-Acylethanolamine-Hydrolyzing Acid Amidase (NAAA) Inhibitors for Oral Administration” (Journal of Medicinal Chemistry, 2021) come the findings set out here.

The data set in a line: Mouse pharmacokinetics, i.v. and p.o. The following applies: plasma, male C57BL/6 mice; for AUC at 4 h / Cmax at 4 h / Tmax at 4 h / Vd at 4 h / clearance at 4 h / bioavailability at 4 h: iv; for AUC at 4 h / Cmax at 4 h / Tmax at 4 h / Vd at 4 h / clearance at 4 h: i.v. 3 mg/kg; for AUC at 8 h / Cmax at 8 h / Tmax at 8 h: po, p.o. 10 mg/kg. The data set is classed as in vivo. On the procedure:
Male C57BL/6 mice, weighing 22–24 g, were used (Charles River). All procedures were performed in accordance with the Ethical Guidelines of European Communities Council (Directive 2010/63/EU of 22 September 2010) and accepted by the Italian Ministry of Health. All efforts were made to minimize animal suffering and to use the minimal number of animals required to produce reliable results, according to the “3Rs concept”. Animals were group-housed in ventilated cages and had free access to food and water. They were maintained under a 12 h light/dark cycle (lights on at 8:00 am) at controlled temperature (21 ± 1 °C) and relative humidity (55 ± 10%).
Compound 39 or 50 was administered p.o. and i.v. to C57BL/6 male mice at 10 and 3 mg/kg. The vehicle used was PEG400/Tween 80/saline solution at 10/10/80% in volume, respectively. Three animals per each time point were treated. Blood samples at 0, 15, 30, 60, 120, 240, and 480 min after administration were collected for the p.o. arm. Blood samples at 0, 5, 15, 30, 60, 120, and 240 min after administration were collected for the i.v. arm. Plasma was separated from blood by centrifugation for 15 min at 1500 rpm a 4 °C, transferred to Eppendorf tubes, and frozen (−80 °C). Control animals treated with vehicle only were also included in the experimental protocol.
Plasma samples were centrifuged at 21,100g for 15 min at 4 °C. An aliquot of each sample was extracted (1:3) with cold CH3CN containing 200 nM of an appropriate internal standard as a close analogue of the parent compound (for compound 39: (1R,3r,5S)-3-(4-phenylphenoxy)-8-((3,5-dimethyl-1H-pyrazol-4-yl)sulfonyl)-8 azabicyclo[3.2.1]octane; for compound 50: (1R,3r,5S)-3-((5-methylpyrazin-2-yl)oxy)-8-((3,5-dimethyl-1H-pyrazol-4-yl)sulfonyl)-8-azabicyclo[3.2.1]octane). A calibration curve was obtained in blank mouse plasma over a 1 nM to 10 μM range. Three quality controls were prepared by spiking the parent compound in blank mouse plasma to 20, 200, and 2.000 nM, as final concentrations. The calibrators and quality controls were extracted (1:3) with the same extraction solution as the plasma sample. The plasma samples, the calibrators, and quality controls were centrifuged at 3.270g for 15 min at 4 °C. The supernatants were further diluted (1:1) with H2O + 0.1% HCOOH, and analyzed by LC–MS/MS on a Waters ACQUITY UPLC-MS TQD system consisting of a Triple Quadrupole Detector (TQD) Mass Spectrometer equipped with an Electrospray Ionization interface and a Photodiode Array eλ Detector from Waters Inc. (Milford, MA, USA). Electrospray ionization was applied in positive mode. Compound-dependent parameters such as MRM transitions and collision energy were developed for the parent compound and the internal standard. The analyses were run on an ACQUITY UPLC BEH C18 (50 × 2.1 mm ID, particle size 1.7 μm) with a VanGuard BEH C18 precolumn (5 × 2.1 mm ID, particle size 1.7 μm) at 40 °C. The mobile phase was H2O + 0.1% HCOOH (A) and CH3CN + 0.1% HCOOH (B) at a flow rate = 0.5 mL/min. A linear gradient was applied starting at 10% B with an initial hold for 0.2 min, then 10–100% B in 2 min. All samples (plasma samples, calibrators, and quality controls) were quantified by the MRM peak area response factor in order to determine the levels of the parent compound in plasma. The concentrations versus time were plotted and the profiles were fitted using PK Solutions Excel Application (Summit Research Service, USA) in order to determine the pharmacokinetic parameters.

The mark [1] stands for this setting: p.o. 10 mg/kg vs i.v. 3 mg/kg, read-out: F (oral bioavailability).

Structures are written as SMILES.

Take `CCCCc1ccc(O[C@H]2C[C@H]3CC[C@@H](C2)N3S(=O)(=O)c2c(C)n[nH]c2C)cc1` [Compound 39, (1R,3r,5S)-3-(4-Butylphenoxy)-8-((3,5-dimethyl-1H-pyrazol-4-yl)sulfonyl)-8-azabicyclo[3.2.1]octane]: the area under the curve (AUC) (in general, concentration integrated over time) at 4 h is 347 ng·h/mL; the peak level (Cmax at 4 h) was 702 ng/mL; the Tmax – broadly, the time at which the peak concentration occurs – at 4 h is 5 min; the Vd at 4 h came out at 4.45 L/kg. Moreover, the clearance at 4 h is 144 mL/min/kg; the area under the curve (AUC) at 8 h was 346 ng·h/mL; the Cmax (in general, the highest concentration seen after dosing) at 8 h stood at 297 ng/mL; the time of peak concentration (Tmax) at 8 h is 30 min. Further, the bioavailability (in general, dose-corrected exposure relative to a reference, in per cent) at 4 h under setting [1] came out at 30%.

`CCOCc1cnc(O[C@H]2C[C@H]3CC[C@@H](C2)N3S(=O)(=O)c2c(C)n[nH]c2C)cn1` [Compound 50, (1R,3r,5S)-8-((3,5-Dimethyl-1H-pyrazol-4-yl)sulfonyl)-3-((5-(ethoxymethyl)pyrazin-2-yl)oxy)-8-azabicyclo[3.2.1]octane]: the AUC at 4 h was 3370 ng·h/mL, the Cmax at 4 h is 5240 ng/mL, the Tmax at 4 h was 5 min and the Vd at 4 h amounted to 0.53 L/kg. For the same compound, the clearance at 4 h turned out to be 13 mL/min/kg, the area under the curve (AUC) at 8 h is 6790 ng·h/mL, the Cmax at 8 h was 6870 ng/mL and the Tmax at 8 h was 15 min. Moreover, the bioavailability at 4 h under setting [1] came out at 60%. The bioavailability (oral, p.o. 10 mg/kg vs i.v. 3 mg/kg, read-out: F (oral bioavailability)) is ~60%.
